Measured values as given in publication PMC8130605 (RSC Medicinal Chemistry, 2021).

How the values were obtained:
THP1 cells = assay: THP1 host cell cytotoxicity; assay type: cell-based
[1] = Mouse pharmacokinetic study; assay type: in vivo; settings: after oral dosing 50 mg kg^−1

| SMILES | background cell cytotoxicity (in words) (THP1 cells) | compound in the plasma after 24 hours [1] |
| --- | --- | --- |
| CC(C)(C)Nc1c(-c2ccccn2)nc2c(OCc3ccccc3)cccn12 [Compound 2] | no background cell cytotoxicity |  |
| Cc1ccc2nc(-c3ccc(N(C)C)cc3)c(NC3CCCCC3)n2c1 [Compound 8] | no background cell cytotoxicity |  |
| COc1ccn2c(Nc3cc(F)cc(F)c3)c(-c3ccccn3)nc2c1 [Compound 23] |  | no compound observed |
